Assay results published in ChEMBL document CHEMBL3390848, “Affinity selection and sequence-activity relationships of HIV-1 membrane fusion inhibitors directed at the drug-resistant variants” (Medchemcomm, 2010).
Residues, ends and D or L forms follow the SMILES beside them.

Key:
[1] = test system: Human immunodeficiency virus 1; assay: Antiviral activity against HIV1 NL4-3 harboring gp41 D36G mutant infected in human HeLa cells expressing CD4-LTR-beta-gal assessed as inhibition of viral replication after 48 hrs by MAGI assay; format: functional, organism-based
[2] = test system: Human immunodeficiency virus 1; assay: Binding affinity to HIV1 His-tagged N-terminal heptad repeat of envelope glycoprotein gp41 assessed as recovery of N54-drug complex after 2 hrs by LC-MS analysis; design: concentration or dose not given beside the values
[3] = test system: Human immunodeficiency virus 1; assay: Thermal stability of HIV1 envelope glycoprotein gp41 His-tagged N-terminal heptad repeat N54-drug complex assessed as thermal unfolding transition state by measuring molar ellipticity at 4 to 90 degC by circular dichroic spectra analysis

Compound `CC[C@H](C)[C@H](NC(=O)[C@H](CC(C)C)NC(=O)[C@H](CCC(=O)O)NC(=O)[C@H](CCC(=O)O)NC(=O)[C@@H](NC(=O)[C@H](CC(C)C)NC(=O)[C@H](CO)NC(=O)[C@@H](NC(=O)[C@H](Cc1ccc(O)cc1)NC(C)=O)[C@@H](C)O)[C@@H](C)CC)C(=O)N[C@@H](CCCCN)C(=O)N[C@@H](CCCCN)C(=O)N[C@@H](CO)C(=O)N[C@@H](CCC(=O)O)C(=O)N[C@@H](CCC(=O)O)C(=O)N[C@@H](CC(=O)O)C(=O)N[C@@H](CCC(N)=O)C(=O)N[C@@H](CCCCN)C(=O)N[C@@H](CCCCN)C(=O)N[C@@H](CC(N)=O)C(=O)N[C@@H](CCC(=O)O)C(=O)N[C@@H](CCC(=O)O)C(=O)N[C@@H](CCC(=O)O)C(=O)N[C@@H](CC(C)C)C(=O)N[C@@H](CCCCN)C(=O)N[C@@H](CCCCN)C(=O)N[C@@H](CC(C)C)C(=O)N[C@@H](CCC(=O)O)C(=O)N[C@@H](CCC(=O)O)C(=O)N[C@@H](Cc1c[nH]c2ccccc12)C(=O)N[C@@H](C)C(=O)N[C@@H](CCCCN)C(=O)N[C@@H](CCCCN)C(=O)N[C@@H](Cc1c[nH]c2ccccc12)C(=O)N[C@@H](CC(N)=O)C(=O)N[C@@H](Cc1c[nH]c2ccccc12)C(=O)N[C@@H](Cc1ccccc1)C(N)=O` (Ac-YTSLIEELIKKSEEDQKKNEEELKKLEEWAKKWNWF-NH2) has an EC50 [1] of 3.5 nM, an Activity [2] of 8.2% and a Tm [3] of 71.4 °C.
`CC[C@H](C)[C@H](NC(=O)[C@H](CC(C)C)NC(=O)[C@H](CCC(=O)O)NC(=O)[C@H](CCC(=O)O)NC(=O)[C@@H](NC(=O)[C@H](CC(C)C)NC(=O)[C@H](CO)NC(=O)[C@@H](NC(=O)[C@H](Cc1ccc(O)cc1)NC(C)=O)[C@@H](C)O)[C@@H](C)CC)C(=O)N[C@@H](CCCCN)C(=O)N[C@@H](CCCCN)C(=O)N[C@@H](CO)C(=O)N[C@@H](CCC(=O)O)C(=O)N[C@@H](CCC(=O)O)C(=O)N[C@@H](CCC(=O)O)C(=O)N[C@@H](CCC(N)=O)C(=O)N[C@@H](CCCCN)C(=O)N[C@@H](CCCCN)C(=O)N[C@@H](CC(N)=O)C(=O)N[C@@H](CCC(=O)O)C(=O)N[C@@H](CCC(=O)O)C(=O)N[C@@H](CCC(=O)O)C(=O)N[C@@H](CC(C)C)C(=O)N[C@@H](CCCCN)C(=O)N[C@@H](CCCCN)C(=O)N[C@@H](CC(C)C)C(=O)N[C@@H](CCC(=O)O)C(=O)N[C@@H](CCC(=O)O)C(=O)N[C@@H](Cc1c[nH]c2ccccc12)C(=O)N[C@@H](C)C(=O)N[C@@H](CCCCN)C(=O)N[C@@H](CCCCN)C(=O)N[C@@H](Cc1c[nH]c2ccccc12)C(=O)N[C@@H](CC(N)=O)C(=O)N[C@@H](Cc1c[nH]c2ccccc12)C(=O)N[C@@H](Cc1ccccc1)C(N)=O` (Ac-YTSLIEELIKKSEEEQKKNEEELKKLEEWAKKWNWF-NH2) showed an EC50 [1] of 3.8 nM, an Activity [2] of 8.2% and a Tm [3] of 71.8 °C.
Work on `CC[C@H](C)[C@H](NC(=O)[C@H](CC(C)C)NC(=O)[C@H](CCC(=O)O)NC(=O)[C@H](CCC(=O)O)NC(=O)[C@@H](NC(=O)[C@H](CC(C)C)NC(=O)[C@H](CO)NC(=O)[C@@H](NC(=O)[C@H](Cc1ccc(O)cc1)NC(C)=O)[C@@H](C)O)[C@@H](C)CC)C(=O)N[C@@H](CCCCN)C(=O)N[C@@H](CCCCN)C(=O)N[C@@H](CO)C(=O)N[C@@H](CCC(=O)O)C(=O)N[C@@H](CCC(=O)O)C(=O)N[C@@H](Cc1ccccc1)C(=O)N[C@@H](CCC(N)=O)C(=O)N[C@@H](CCCCN)C(=O)N[C@@H](CCCCN)C(=O)N[C@@H](CC(N)=O)C(=O)N[C@@H](CCC(=O)O)C(=O)N[C@@H](CCC(=O)O)C(=O)N[C@@H](CCC(=O)O)C(=O)N[C@@H](CC(C)C)C(=O)N[C@@H](CCCCN)C(=O)N[C@@H](CCCCN)C(=O)N[C@@H](CC(C)C)C(=O)N[C@@H](CCC(=O)O)C(=O)N[C@@H](CCC(=O)O)C(=O)N[C@@H](Cc1c[nH]c2ccccc12)C(=O)N[C@@H](C)C(=O)N[C@@H](CCCCN)C(=O)N[C@@H](CCCCN)C(=O)N[C@@H](Cc1c[nH]c2ccccc12)C(=O)N[C@@H](CC(N)=O)C(=O)N[C@@H](Cc1c[nH]c2ccccc12)C(=O)N[C@@H](Cc1ccccc1)C(N)=O` (Ac-YTSLIEELIKKSEEFQKKNEEELKKLEEWAKKWNWF-NH2) yielded an EC50 [1] of 2.6 nM, an Activity [2] of 5.3% and a Tm [3] of 64 °C.
Work on `CC[C@H](C)[C@H](NC(=O)[C@H](CC(C)C)NC(=O)[C@H](CCC(=O)O)NC(=O)[C@H](CCC(=O)O)NC(=O)[C@@H](NC(=O)[C@H](CC(C)C)NC(=O)[C@H](CO)NC(=O)[C@@H](NC(=O)[C@H](Cc1ccc(O)cc1)NC(C)=O)[C@@H](C)O)[C@@H](C)CC)C(=O)N[C@@H](CCCCN)C(=O)N[C@@H](CCCCN)C(=O)N[C@@H](CO)C(=O)N[C@@H](CCC(=O)O)C(=O)N[C@@H](CCC(=O)O)C(=O)NCC(=O)N[C@@H](CCC(N)=O)C(=O)N[C@@H](CCCCN)C(=O)N[C@@H](CCCCN)C(=O)N[C@@H](CC(N)=O)C(=O)N[C@@H](CCC(=O)O)C(=O)N[C@@H](CCC(=O)O)C(=O)N[C@@H](CCC(=O)O)C(=O)N[C@@H](CC(C)C)C(=O)N[C@@H](CCCCN)C(=O)N[C@@H](CCCCN)C(=O)N[C@@H](CC(C)C)C(=O)N[C@@H](CCC(=O)O)C(=O)N[C@@H](CCC(=O)O)C(=O)N[C@@H](Cc1c[nH]c2ccccc12)C(=O)N[C@@H](C)C(=O)N[C@@H](CCCCN)C(=O)N[C@@H](CCCCN)C(=O)N[C@@H](Cc1c[nH]c2ccccc12)C(=O)N[C@@H](CC(N)=O)C(=O)N[C@@H](Cc1c[nH]c2ccccc12)C(=O)N[C@@H](Cc1ccccc1)C(N)=O` (Ac-YTSLIEELIKKSEEGQKKNEEELKKLEEWAKKWNWF-NH2) yielded an EC50 [1] of 3 nM, an Activity [2] of 3.4% and a Tm [3] of 66.2 °C.
`CC[C@H](C)[C@H](NC(=O)[C@H](CC(C)C)NC(=O)[C@H](CCC(=O)O)NC(=O)[C@H](CCC(=O)O)NC(=O)[C@@H](NC(=O)[C@H](CC(C)C)NC(=O)[C@H](CO)NC(=O)[C@@H](NC(=O)[C@H](Cc1ccc(O)cc1)NC(C)=O)[C@@H](C)O)[C@@H](C)CC)C(=O)N[C@@H](CCCCN)C(=O)N[C@@H](CCCCN)C(=O)N[C@@H](CO)C(=O)N[C@@H](CCC(=O)O)C(=O)N[C@@H](CCC(=O)O)C(=O)N[C@@H](Cc1cnc[nH]1)C(=O)N[C@@H](CCC(N)=O)C(=O)N[C@@H](CCCCN)C(=O)N[C@@H](CCCCN)C(=O)N[C@@H](CC(N)=O)C(=O)N[C@@H](CCC(=O)O)C(=O)N[C@@H](CCC(=O)O)C(=O)N[C@@H](CCC(=O)O)C(=O)N[C@@H](CC(C)C)C(=O)N[C@@H](CCCCN)C(=O)N[C@@H](CCCCN)C(=O)N[C@@H](CC(C)C)C(=O)N[C@@H](CCC(=O)O)C(=O)N[C@@H](CCC(=O)O)C(=O)N[C@@H](Cc1c[nH]c2ccccc12)C(=O)N[C@@H](C)C(=O)N[C@@H](CCCCN)C(=O)N[C@@H](CCCCN)C(=O)N[C@@H](Cc1c[nH]c2ccccc12)C(=O)N[C@@H](CC(N)=O)C(=O)N[C@@H](Cc1c[nH]c2ccccc12)C(=O)N[C@@H](Cc1ccccc1)C(N)=O` (Ac-YTSLIEELIKKSEEHQKKNEEELKKLEEWAKKWNWF-NH2) was tested, and the EC50 [1] was 3 nM, the Activity [2] was 3.7% and the Tm [3] was 68.4 °C.
`CC[C@H](C)[C@H](NC(=O)[C@H](CCC(=O)O)NC(=O)[C@H](CCC(=O)O)NC(=O)[C@H](CO)NC(=O)[C@H](CCCCN)NC(=O)[C@H](CCCCN)NC(=O)[C@@H](NC(=O)[C@H](CC(C)C)NC(=O)[C@H](CCC(=O)O)NC(=O)[C@H](CCC(=O)O)NC(=O)[C@@H](NC(=O)[C@H](CC(C)C)NC(=O)[C@H](CO)NC(=O)[C@@H](NC(=O)[C@H](Cc1ccc(O)cc1)NC(C)=O)[C@@H](C)O)[C@@H](C)CC)[C@@H](C)CC)C(=O)N[C@@H](CCC(N)=O)C(=O)N[C@@H](CCCCN)C(=O)N[C@@H](CCCCN)C(=O)N[C@@H](CC(N)=O)C(=O)N[C@@H](CCC(=O)O)C(=O)N[C@@H](CCC(=O)O)C(=O)N[C@@H](CCC(=O)O)C(=O)N[C@@H](CC(C)C)C(=O)N[C@@H](CCCCN)C(=O)N[C@@H](CCCCN)C(=O)N[C@@H](CC(C)C)C(=O)N[C@@H](CCC(=O)O)C(=O)N[C@@H](CCC(=O)O)C(=O)N[C@@H](Cc1c[nH]c2ccccc12)C(=O)N[C@@H](C)C(=O)N[C@@H](CCCCN)C(=O)N[C@@H](CCCCN)C(=O)N[C@@H](Cc1c[nH]c2ccccc12)C(=O)N[C@@H](CC(N)=O)C(=O)N[C@@H](Cc1c[nH]c2ccccc12)C(=O)N[C@@H](Cc1ccccc1)C(N)=O` (Ac-YTSLIEELIKKSEEIQKKNEEELKKLEEWAKKWNWF-NH2) gave an EC50 [1] of 0.8 nM, an Activity [2] of 10.4% and a Tm [3] of 74 °C.
Work on `CC[C@H](C)[C@H](NC(=O)[C@H](CC(C)C)NC(=O)[C@H](CCC(=O)O)NC(=O)[C@H](CCC(=O)O)NC(=O)[C@@H](NC(=O)[C@H](CC(C)C)NC(=O)[C@H](CO)NC(=O)[C@@H](NC(=O)[C@H](Cc1ccc(O)cc1)NC(C)=O)[C@@H](C)O)[C@@H](C)CC)C(=O)N[C@@H](CCCCN)C(=O)N[C@@H](CCCCN)C(=O)N[C@@H](CO)C(=O)N[C@@H](CCC(=O)O)C(=O)N[C@@H](CCC(=O)O)C(=O)N[C@@H](CCCCN)C(=O)N[C@@H](CCC(N)=O)C(=O)N[C@@H](CCCCN)C(=O)N[C@@H](CCCCN)C(=O)N[C@@H](CC(N)=O)C(=O)N[C@@H](CCC(=O)O)C(=O)N[C@@H](CCC(=O)O)C(=O)N[C@@H](CCC(=O)O)C(=O)N[C@@H](CC(C)C)C(=O)N[C@@H](CCCCN)C(=O)N[C@@H](CCCCN)C(=O)N[C@@H](CC(C)C)C(=O)N[C@@H](CCC(=O)O)C(=O)N[C@@H](CCC(=O)O)C(=O)N[C@@H](Cc1c[nH]c2ccccc12)C(=O)N[C@@H](C)C(=O)N[C@@H](CCCCN)C(=O)N[C@@H](CCCCN)C(=O)N[C@@H](Cc1c[nH]c2ccccc12)C(=O)N[C@@H](CC(N)=O)C(=O)N[C@@H](Cc1c[nH]c2ccccc12)C(=O)N[C@@H](Cc1ccccc1)C(N)=O` (Ac-YTSLIEELIKKSEEKQKKNEEELKKLEEWAKKWNWF-NH2) yielded an EC50 [1] of 3.8 nM, an Activity [2] of 4.8% and a Tm [3] of 65.3 °C.
